Test results: US11980209B2, “Consumables” (GIVAUDAN SA, priority 2007, dated 2024)
“Also recorded” adds a separate entry of the source.

Experiments:
Type in all cases: in vivo, human
[1] = test system: perceived sweetness (one panelist trained for sweetness detection); assay: Paired comparison of 20-100 ppm trilobatin versus 0-1% sucrose (Example 1a)
Description: Trilobatin (20 ppm, 60 ppm, 100 ppm) in water samples were evaluated for isointensity to sucrose solutions in a concentration of 0, 0.5 and 1% sucrose using a paired comparison method. Samples were paired and tasted left to right with rinsing (water) in between, by one panelist trained for sweetness detection.
The trilobatin samples were compared to either 0%, 0.5%, or 1% sucrose solutions.

[2] = test system: perceived sweet taste (sweet sensitive panelists); assay: Ranking test with R-index, isointensity of 100 ppm trilobatin in water (Example 1b); conditions: for R-index: critical values 35.39-64.61%
Description: The sensory evaluation was conducted using a ranking method. Samples at ambient temperature were randomly presented in 15 ml blind aliquots (unidentifiable by panelists). Panels consisted of 15 sweet sensitive subjects and samples were presented in 2 replications over 1 session. After tasting each sample, the mouth was rinsed thoroughly with water at ambient temperature prior to tasting the next sample. Panelists were presented with 0.5%, 1%, 1.5% and 2% sucrose solutions in water and a fifth sample of 100 ppm trilobatin in water. Subjects were asked to rank the samples from low to high with respect to perceived sweet taste. R-indices were calculated for 100 ppm trilobatin versus either 0.5%, 1%, 1.5% or 2% sucrose.

[3] = test system: perceived sweet taste (sweet sensitive panelists); assay: Ranking test with R-index, isointensity of 100 ppm trilobatin in 7% sucrose solution (Example 2a); conditions: for R-index: critical values 35.39-64.61%
Description: The sensory evaluation was conducted using a ranking method. Samples at ambient temperature were randomly presented in 15 ml blind aliquots (unidentifiable by panelists). Panels consisted of 15 sweet sensitive subjects and samples were presented in 2 replications over 1 session. After tasting each sample, the mouth was rinsed thoroughly with water at ambient temperature prior to tasting the next sample. Panelists were presented with 7%, 8%, 9%, 10% and 11% sucrose solutions in water and a sixth sample of 100 ppm trilobatin in 7% sucrose. Subjects were asked to rank the samples from low to high with respect to perceived sweet taste. R-indices were calculated for 100 ppm trilobatin in 7% sucrose versus either 7%, 8%, 9%, 10% or 11% sucrose.

[4] = test system: perceived sweet taste (sweet sensitive panelists); assay: Direct comparison of 100 ppm trilobatin in 7% sucrose with 7.5% sucrose solution (Example 2a); conditions: all of 8 sweet sensitive panelists
[5] = test system: perceived sweetness (sweet sensitive panelists); assay: Sweetness detection threshold of trilobatin in yoghurt (Example 8); conditions: for Sweetness of 500 ppm trilobatin sample: plain nonfat yoghurt
Description: (§1) Trilobatin was tested by 6 sweet sensitive panelists in plain nonfat yoghurt.
Yoghurt samples were 500 ppm trilobatin, 1% sucrose, and 2% sucrose. Panelists compared the 500 ppm trilobatin sample to each sucrose sample and compared the sweetness, the results are indicated in the table below.

[6] = test system: perceived sweetness (sweet sensitive panelists); assay: Sweetness enhancement by trilobatin in yoghurt (Example 9)
Description: as §1
Samples of 62.5 ppm, 125 ppm, and 500 ppm trilobatin in yoghurt sweetened with 5% sucrose were compared by panelists to a 5% sucrose sweetened yoghurt and a 7% sucrose sweetened yoghurt sample; the results are indicated in the table below.

[7] = test system: perceived sweetness (panelists); assay: Sweetness detection threshold of trilobatin in milk (Example 10)
Description: Trilobatin was tested by 6 panelists in whole milk.
Milk samples were 62.5 ppm, 125 ppm, 250 ppm, 500 ppm trilobatin; 1% sucrose, and 2% sucrose.

[8] = test system: perceived sweetness (sweet sensitive panelists); assay: Sweetness enhancement by trilobatin in cereals (Example 11); conditions: tested in whole milk, vs cereal with 1% added sucrose
Description: Trilobatin was tested by 4 sweet sensitive panelists in cereal samples (cereals from Kix, General Mills; USA). The cereal is a comparatively low sugar product and contains 3 g sucrose per 30 g cereal. Panelists tested the samples in whole milk. To the cereal samples, sucrose was topically added by spraying the corresponding amount of a 10% sucrose solution in water to give 1%. The samples were baked at 250° C. for about 15 minutes in a convection oven to dry/remove the water. Similarly, trilobatin was applied to cereal samples as a 0.1% solution in 50/50 w/w ethanol/water to give various trilobatin concentrations (100 ppm, 200 ppm, 400 ppm).

[9] = test system: perceived sweetness (sweet sensitive panelists); assay: Ranking test with R-index, sweetness of trilobatin (750 ppm) in yogurt (Example 13); conditions: for R-index: critical value 37.4 to 62.6%
Description: The sucrose concentration isointense to 750 ppm trilobatin in a plain yogurt base was determined as follows.
Samples contained a plain yogurt base with 750 ppm trilobatin, or the same plain yogurt base with sucrose in various concentrations (0%, 0.5%, 1.0%, 1.5%, and 2.0% sucrose).
30 ml of each yogurt sample was served cold, in random order, to 21 sweet sensitive panelists. In two replications over 1 session, panelists were asked to rank the samples from least sweet to most sweet. The data was subjected to an R-index analysis.

[10] = 100 ppm trilobatin in water vs 0.5% sucrose
[11] = 100 ppm trilobatin in 7% sucrose
[12] = 62.5 ppm trilobatin in yoghurt sweetened with 5% sucrose
[13] = 125 ppm trilobatin in yoghurt sweetened with 5% sucrose
[14] = 500 ppm trilobatin in 5% sucrose yoghurt
[15] = 750 ppm TL in plain yogurt vs 0% sucrose yogurt
[16] = 750 ppm TL in plain yogurt vs 0.5% sucrose yogurt
[17] = 750 ppm TL in plain yogurt vs 1% sucrose yogurt
[18] = 750 ppm TL in plain yogurt vs 1.5% sucrose yogurt
[19] = 750 ppm TL in plain yogurt vs 2% sucrose yogurt

O=C(CCc1ccc(O)cc1)c1c(O)cc(O[C@@H]2O[C@H](CO)[C@@H](O)[C@H](O)[C@H]2O)cc1O [trilobatin, 1-[4-(beta-D-glucopyranosyloxy)-2,6-dihydroxyphenyl]-3-(4-hydroxyphenyl)-1-propanone]
Taste of trilobatin samples compared to sucrose ([1]; 20 ppm trilobatin in water vs 0% sucrose): isosweet
Taste of trilobatin samples compared to sucrose ([1]; 20 ppm trilobatin in water vs 0.5% sucrose): notably less sweet
isointensity to sucrose, by interpolation ([1]; 60 ppm trilobatin in water): 0.25 % sucrose
Taste of trilobatin samples compared to sucrose ([1]; 60 ppm trilobatin in water vs 0% sucrose): weakly sweeter
Taste of trilobatin samples compared to sucrose ([1]; 60 ppm trilobatin in water vs 0.5% sucrose): less sweet
Taste of trilobatin samples compared to sucrose ([1]; 100 ppm trilobatin in water vs 0% sucrose): sweeter
Taste of trilobatin samples compared to sucrose [1, 10]: isosweet
Taste of trilobatin samples compared to sucrose ([1]; 100 ppm trilobatin in water vs 1% sucrose): less sweet
sample sweetness (trilobatin, 100 ppm) ([2]; 100 ppm in water vs 0.5% sucrose solution): Isosweet
sample sweetness (trilobatin, 100 ppm) ([2]; 100 ppm in water vs 1.0% sucrose solution): Less sweet
sample sweetness (trilobatin, 100 ppm) ([2]; 100 ppm in water vs 1.5% sucrose solution): Less sweet
sample sweetness (trilobatin, 100 ppm) ([2]; 100 ppm in water vs 2.0% sucrose solution): Less sweet
isointensity to sucrose ([2]; 100 ppm trilobatin in water): 0.5 % sucrose
R-index [2, 10]: 44%
R-index ([2]; 100 ppm trilobatin in water vs 1.0% sucrose): 13%
R-index ([2]; 100 ppm trilobatin in water vs 1.5% sucrose): 0%
R-index ([2]; 100 ppm trilobatin in water vs 2.0% sucrose): 0%
added sucrose sweetness intensity [3, 11]: 1 ° Brix
expected isointensity to sucrose assuming a merely additive effect [3, 11]: 7.5 % sucrose
isointensity to sucrose [3, 11]: 8 % sucrose
R-index ([3]; 100 ppm trilobatin in 7% sucrose vs 7% sucrose): 79%
R-index ([3]; 100 ppm trilobatin in 7% sucrose vs 8% sucrose): 38%
R-index ([3]; 100 ppm trilobatin in 7% sucrose vs 9% sucrose): 12%
R-index ([3]; 100 ppm trilobatin in 7% sucrose vs 10% sucrose): 1%
R-index ([3]; 100 ppm trilobatin in 7% sucrose vs 11% sucrose): 0%
sample sweetness (7% sucrose + 100 ppm trilobatin) ([3]; vs 7% sucrose solution): Sweeter
sample sweetness (7% sucrose + 100 ppm trilobatin) ([3]; vs 8% sucrose solution): Isosweet
sample sweetness (7% sucrose + 100 ppm trilobatin) ([3]; vs 9% sucrose solution): Less sweet
sample sweetness (7% sucrose + 100 ppm trilobatin) ([3]; vs 10% sucrose solution): Less sweet
sample sweetness (7% sucrose + 100 ppm trilobatin) ([3]; vs 11% sucrose solution): Less sweet
taste in direct comparison with 7.5% sucrose solution [4]: significantly sweeter
own sweetness equivalent to sucrose ([5]; 500 ppm trilobatin in yoghurt): 1 % sucrose
Sweetness of 500 ppm trilobatin sample ([5]; vs 1% sucrose yoghurt sample): slightly less sweet/similarly sweet
Sweetness of 500 ppm trilobatin sample ([5]; vs 2% sucrose yoghurt sample): less sweet
sweetness trilobatin compared to 5% sucrose sample [6, 12]: + sweeter
sweetness trilobatin compared to 7% sucrose sample [6, 12]: less sweet
sweetness trilobatin compared to 5% sucrose sample [6, 13]: ++ sweeter
sweetness trilobatin compared to 7% sucrose sample [6, 13]: less sweet
sucrose level that the 5% sucrose sample tastes like [6, 14]: 7%
sweetness enhancement effect equivalent to added sucrose [6, 14]: 1 % sucrose
Trilobatin sample sweetness compared to sucrose ([7]; 62.5 ppm in whole milk, 6/6 panelists): below 1% sucrose (6/6)
Trilobatin sample sweetness compared to sucrose ([7]; 125 ppm in whole milk, 6/6 panelists): below 1% sucrose (6/6)
Trilobatin sample sweetness compared to sucrose ([7]; 250 ppm in whole milk, 6/6 panelists): below 1% sucrose (6/6)
Trilobatin sample sweetness compared to sucrose ([7]; 500 ppm in whole milk, 3/6 panelists (below)): below 1% sucrose (3/6)
Sweetness trilobatin sample ([8]; 100 ppm trilobatin on cereal): less sweet than 1% sucrose
Sweetness trilobatin sample ([8]; 200 ppm trilobatin on cereal): sweeter than 1% sucrose
Sweetness trilobatin sample ([8]; 400 ppm trilobatin on cereal): much sweeter than 1% sucrose,; also recorded: too sweet
sweetness TL sample [9, 15]: sweeter
R-index [9, 15]: 82.6%
sweetness TL sample [9, 16]: isosweet
R-index [9, 16]: 58.5%
sweetness TL sample [9, 17]: less
R-index [9, 17]: 14.7%
sweetness TL sample [9, 18]: less
R-index [9, 18]: 4.4%
sweetness TL sample [9, 19]: less
R-index [9, 19]: 3.3%
isointensity to sucrose ([9]; 750 ppm trilobatin in plain yogurt): 0.5 % sucrose
